Experimental data as given in DBAASP.
In brackets after ≈: the same amount, converted by molar mass.

Assays:
Experiment in all cases: ≥ marks a high value that may be exact or a test limit, other limits are often not marked, values filed in µg/mL are converted to µM
[1] = system: Bacillus subtilis ATCC 6051
[2] = system: Klebsiella pneumoniae ATCC 13883
[3] = system: Pseudomonas aeruginosa
[4] = system: Acinetobacter baumannii ATCC 19606
[5] = system: Escherichia coli ATCC 25922
[6] = system: Staphylococcus aureus ATCC 43300
[7] = system: Klebsiella pneumoniae
[8] = system: Cryptococcus neoformans ATCC 208821
[9] = system: Pseudomonas aeruginosa ATCC 27853
[10] = system: Candida albicans ATCC 90028
[11] = system: Acinetobacter baumannii
[12] = system: Klebsiella pneumoniae ATCC 700603
[13] = system: Klebsiella pneumoniae ATCC BAA-2146
[14] = system: Pseudomonas aeruginosa PAO1 H103
[15] = system: Pseudomonas aeruginosa H1030
[16] = system: Enterobacter cloacae 218R
[17] = system: Pseudomonas aeruginosa LES400
[18] = system: Escherichia coli ESBL 64771
[19] = system: Enterococcus faecium mic80
[20] = system: Staphylococcus aureus C623
[21] = system: Staphylococcus aureus ATCC 25923
[22] = system: Enterococcus faecalis ATCC 29212
[23] = system: Klebsiella pneumoniae ESBL 61962
[24] = system: Enterococcus faecalis f43559
[25] = system: Pseudomonas aeruginosa 213
[26] = system: Pseudomonas aeruginosa 9
[27] = system: Klebsiella pneumoniae ESBL 63575
[28] = system: Pseudomonas aeruginosa 198
[29] = system: Enterococcus faecalis W61950
[30] = system: Stenotrophomonas maltophilia ATCC 13637
[31] = system: Escherichia coli ESBL 63103
[32] = system: Pseudomonas aeruginosa H1027
[33] = system: Enterococcus faecium t62764

Row | SMILES | MIC [1] | MIC [2] | MIC [3] | MIC [4] | MIC [5] | MIC [6] | MIC [7] | MIC [8] | MIC [9] | MIC [10] | MIC [11] | MIC [12] | MIC [13] | other results
1 | CC[C@H](C)[C@@H]1NC(=O)CNC(=O)[C@H](CCCN=C(N)N)NC(=O)[C@H](Cc2ccc(O)cc2)NC(=O)[C@@H]2CSSC[C@H](NC1=O)C(=O)N[C@@H](C)C(=O)N[C@@H](CCCN=C(N)N)C(=O)N[C@@H](CCCN=C(N)N)C(=O)N[C@H](C(=O)N[C@@H](CCCN=C(N)N)C(=O)O)CSSC[C@H](NC(=O)[C@H](Cc1c[nH]c3ccccc13)NC(=O)[C@@H](N)CCCCN)C(=O)N[C@@H](Cc1ccccc1)C(=O)N[C@@H](CCCN=C(N)N)C(=O)N[C@@H](C(C)C)C(=O)N2 [KWCFRVCYRGICARRCR] | 0.0276 µM (≈ 0.06 µg/mL) | 0.115 µM (≈ 0.25 µg/mL) | 0.919 µM (≈ 2 µg/mL) | 0.0574 µM (≈ 0.125 µg/mL) | 0.115 µM (≈ 0.25 µg/mL) | 1.84 µM (≈ 3.99 µg/mL) | 3.68 µM (≈ 7.99 µg/mL) | 0.23 µM (≈ 0.499 µg/mL) | 0.23 µM (≈ 0.499 µg/mL) | 1.84 µM (≈ 3.99 µg/mL) | 0.115 µM (≈ 0.25 µg/mL) | 0.23 µM (≈ 0.499 µg/mL) | 0.23 µM (≈ 0.499 µg/mL) | 
2 | CC[C@H](C)[C@H](NC(=O)[C@H](CCCN=C(N)N)NC(=O)[C@H](CCCCN)NC(=O)[C@@H](NC(=O)[C@H](Cc1c[nH]c2ccccc12)NC(=O)[C@H](Cc1c[nH]c2ccccc12)NC(=O)[C@H](Cc1c[nH]c2ccccc12)NC(=O)[C@H](CCCN=C(N)N)NC(=O)[C@@H](N)CC(C)C)[C@@H](C)CC)C(=O)O [LRWWWIKRI] |  |  |  |  |  |  |  |  |  |  |  |  |  | MIC [14]: 7.08 µM (≈ 9.6 µg/mL); MIC [15]: 13.3 µM (≈ 18 µg/mL); MIC [16]: 27.3 µM (≈ 37 µg/mL); MIC [17]: 13.3 µM (≈ 18 µg/mL); MIC [18]: 7.08 µM (≈ 9.6 µg/mL); MIC [19]: 3.39 µM (≈ 4.6 µg/mL); MIC [20]: 3.39 µM (≈ 4.6 µg/mL); MIC [21]: 3.39 µM (≈ 4.6 µg/mL); MIC [22]: 7.08 µM (≈ 9.6 µg/mL); MIC [23]: ≥ 109 µM; MIC [24]: 13.3 µM (≈ 18 µg/mL); MIC [25]: 27.3 µM (≈ 37 µg/mL); MIC [26]: 27.3 µM (≈ 37 µg/mL); MIC [27]: 27.3 µM (≈ 37 µg/mL); MIC [28]: 13.3 µM (≈ 18 µg/mL); MIC [29]: 27.3 µM (≈ 37 µg/mL); MIC [30]: 1.77 µM (≈ 2.4 µg/mL); MIC [31]: 13.3 µM (≈ 18 µg/mL); MIC [32]: 3.39 µM (≈ 4.6 µg/mL); MIC [33]: 0.811 µM (≈ 1.1 µg/mL)
3 | CC[C@H](C)[C@@H]1NC(=O)CNC(=O)[C@H](CCCN=C(N)N)NC(=O)[C@H](Cc2ccc(O)cc2)NC(=O)[C@@H]2CSSC[C@H](NC1=O)C(=O)N[C@@H](Cc1ccc(O)cc1)C(=O)N[C@@H](CCCN=C(N)N)C(=O)N[C@@H](CCCN=C(N)N)C(=O)N[C@H](C(=O)N[C@@H](CCCN=C(N)N)C(=O)O)CSSC[C@H](NC(=O)[C@H](Cc1c[nH]c3ccccc13)NC(=O)[C@@H](N)CCCN=C(N)N)C(=O)N[C@@H](Cc1ccccc1)C(=O)N[C@@H](CCCN=C(N)N)C(=O)N[C@@H](C(C)C)C(=O)N2 [RWCFRVCYRGICYRRCR] | 0.0544 µM (≈ 0.125 µg/mL) | 0.0544 µM (≈ 0.125 µg/mL) | 0.218 µM (≈ 0.499 µg/mL) | 0.0544 µM (≈ 0.125 µg/mL) | 0.0544 µM (≈ 0.125 µg/mL) | 0.435 µM (≈ 0.998 µg/mL) | 1.74 µM (≈ 3.99 µg/mL) | 0.109 µM (≈ 0.249 µg/mL) | 0.109 µM (≈ 0.249 µg/mL) | 1.74 µM (≈ 3.99 µg/mL) | 0.109 µM (≈ 0.249 µg/mL) | 0.218 µM (≈ 0.499 µg/mL) | 0.109 µM (≈ 0.249 µg/mL) | 
